PubChem BioAssay (NCI)
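Method: 48-hour compound exposure of cells in 96-well plates, five concentrations, linear interpolation of endpoints. Abbreviation: GI50, concentration required for 50% inhibition of growth. Definition used: TGI = concentration required for complete inhibition of growth.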

What was measured:
Assay in all cases: DTP human tumour cell line panel, 48 h
786-0 renal = system: 786-0 renal
A498 renal = system: A498 renal
A549 NSCLC = system: A549 NSCLC
ACHN renal = system: ACHN renal
BT-549 breast = system: BT-549 breast
CAKI-1 renal = system: CAKI-1 renal
CCRF-CEM leukemia = system: CCRF-CEM leukemia
COLO 205 colon = system: COLO 205 colon
DU-145 prostate = system: DU-145 prostate
HCC-2998 colon = system: HCC-2998 colon
HCT-116 colon = system: HCT-116 colon
HCT-15 colon = system: HCT-15 colon
HL-60(TB) leukemia = system: HL-60(TB) leukemia
HOP-62 NSCLC = system: HOP-62 NSCLC
HOP-92 NSCLC = system: HOP-92 NSCLC
HS 578T breast = system: HS 578T breast
HT29 colon = system: HT29 colon
IGROV1 ovarian = system: IGROV1 ovarian
K-562 leukemia = system: K-562 leukemia
KM12 colon = system: KM12 colon
LOX IMVI melanoma = system: LOX IMVI melanoma
M14 melanoma = system: M14 melanoma
MALME-3M melanoma = system: MALME-3M melanoma
MCF7 breast = system: MCF7 breast
MDA-MB-231 breast = system: MDA-MB-231 breast
MDA-MB-435 = system: MDA-MB-435
MOLT-4 leukemia = system: MOLT-4 leukemia
NCI-H226 lung = system: NCI-H226 lung
NCI-H23 lung = system: NCI-H23 lung
NCI-H460 lung = system: NCI-H460 lung
NCI-H522 lung = system: NCI-H522 lung
NCI/ADR-RES ovarian = system: NCI/ADR-RES ovarian
OVCAR-3 ovarian = system: OVCAR-3 ovarian
OVCAR-4 ovarian = system: OVCAR-4 ovarian
OVCAR-5 ovarian = system: OVCAR-5 ovarian
OVCAR-8 ovarian = system: OVCAR-8 ovarian
PC-3 prostate = system: PC-3 prostate
RPMI-8226 leukemia = system: RPMI-8226 leukemia
RXF 393 renal = system: RXF 393 renal
SF-268 CNS = system: SF-268 CNS
SF-295 CNS = system: SF-295 CNS
SF-539 CNS = system: SF-539 CNS
SK-MEL-2 melanoma = system: SK-MEL-2 melanoma
SK-MEL-28 melanoma = system: SK-MEL-28 melanoma
SK-MEL-5 melanoma = system: SK-MEL-5 melanoma
SK-OV-3 ovarian = system: SK-OV-3 ovarian
SN12C renal = system: SN12C renal
SNB-19 CNS = system: SNB-19 CNS
SNB-75 CNS = system: SNB-75 CNS
SR leukemia = system: SR leukemia
SW-620 colon = system: SW-620 colon
T-47D breast = system: T-47D breast
TK-10 renal = system: TK-10 renal
U251 CNS = system: U251 CNS
UACC-257 melanoma = system: UACC-257 melanoma
UACC-62 melanoma = system: UACC-62 melanoma
UO-31 renal = system: UO-31 renal

## CCN(Cc1c(F)cccc1C(F)(F)F)c1ccc(CO)c(Cl)c1
786-0 renal
  GI50: 15.9 µM
  TGI: 30.9 µM
A498 renal
  GI50: < 0.0191 µM
  TGI: 0.0463 µM
A549 NSCLC
  GI50: 5.56 µM
  TGI: 23.1 µM
ACHN renal
  GI50: 15 µM
  TGI: 28.6 µM
BT-549 breast
  GI50: 17.7 µM
  TGI: 32 µM
CAKI-1 renal
  GI50: 10.2 µM
  TGI: 24.2 µM
CCRF-CEM leukemia
  GI50: 15.7 µM
  TGI: 36.1 µM
COLO 205 colon
  GI50: 2.44 µM
  TGI: 14 µM
DU-145 prostate
  GI50: 15.9 µM
  TGI: 29.8 µM
HCC-2998 colon
  GI50: 16.7 µM
  TGI: 33 µM
HCT-116 colon
  GI50: < 0.0371 µM
  TGI: 11.8 µM
HCT-15 colon
  GI50: 12.8 µM
  TGI: 27.1 µM
HL-60(TB) leukemia
  GI50: 15.9 µM
  TGI: 36.9 µM
HOP-62 NSCLC
  GI50: 13.7 µM
  TGI: 26.6 µM
HOP-92 NSCLC
  GI50: 0.856 µM
  TGI: 16 µM
HS 578T breast
  GI50: 18.3 µM
  TGI: 42.1 µM
HT29 colon
  GI50: 2.99 µM
  TGI: 17.7 µM
IGROV1 ovarian
  GI50: < 0.0338 µM
K-562 leukemia
  GI50: 0.692 µM
  TGI: 13 µM
KM12 colon
  GI50: 14.1 µM
  TGI: 29.4 µM
LOX IMVI melanoma
  GI50: 18.1 µM
  TGI: 33.3 µM
M14 melanoma
  GI50: 17.4 µM
  TGI: 33.4 µM
MALME-3M melanoma
  GI50: 15.2 µM
  TGI: 30.1 µM
MCF7 breast
  GI50: 0.156 µM
  TGI: 15.7 µM
MDA-MB-231 breast
  GI50: 14.6 µM
  TGI: 28.3 µM
MDA-MB-435
  GI50: 14.2 µM
  TGI: 28.3 µM
MOLT-4 leukemia
  GI50: 16.5 µM
  TGI: 37.1 µM
NCI-H226 lung
  GI50: 0.035 µM
  TGI: 0.154 µM
NCI-H23 lung
  GI50: 14.4 µM
  TGI: 31.7 µM
NCI-H460 lung
  GI50: 0.0894 µM
  TGI: 17.2 µM
NCI-H522 lung
  GI50: 12.6 µM
  TGI: 27 µM
NCI/ADR-RES ovarian
  GI50: 14.7 µM
  TGI: 32.1 µM
OVCAR-3 ovarian
  GI50: 0.261 µM
  TGI: 4.9 µM
OVCAR-4 ovarian
  GI50: 0.132 µM
  TGI: 9.9 µM
OVCAR-5 ovarian
  GI50: < 0.0249 µM
  TGI: 0.205 µM
OVCAR-8 ovarian
  GI50: 14.6 µM
  TGI: 31.3 µM
PC-3 prostate
  GI50: 12.3 µM
  TGI: 25.3 µM
RPMI-8226 leukemia
  GI50: 1.47 µM
  TGI: 21.9 µM
RXF 393 renal
  GI50: 12.6 µM
  TGI: 28.5 µM
SF-268 CNS
  GI50: 16.6 µM
  TGI: 31.5 µM
SF-295 CNS
  TGI: 1.12 µM
SF-539 CNS
  GI50: 15.6 µM
  TGI: 29.4 µM
SK-MEL-2 melanoma
  GI50: 3.33 µM
  TGI: 24.5 µM
SK-MEL-28 melanoma
  GI50: 13.9 µM
  TGI: 27.6 µM
SK-MEL-5 melanoma
  GI50: 7.81 µM
  TGI: 23.2 µM
SK-OV-3 ovarian
  GI50: 13.7 µM
  TGI: 26.8 µM
SN12C renal
  GI50: 13 µM
  TGI: 26.2 µM
SNB-19 CNS
  GI50: 14.9 µM
  TGI: 29.1 µM
SNB-75 CNS
  GI50: 12.5 µM
  TGI: 26.4 µM
SR leukemia
  GI50: 14.5 µM
  TGI: 36.5 µM
SW-620 colon
  GI50: 0.79 µM
  TGI: 20.4 µM
T-47D breast
  GI50: < 0.0249 µM
  TGI: 0.285 µM
TK-10 renal
  GI50: 0.0682 µM
  TGI: 0.322 µM
U251 CNS
  GI50: 0.623 µM
  TGI: 17.5 µM
UACC-257 melanoma
  GI50: < 0.0407 µM
  TGI: 0.187 µM
UACC-62 melanoma
  TGI: 12.6 µM
UO-31 renal
  GI50: 14.6 µM
  TGI: 28.3 µM
